According to patent publication US20180327367A1, “MACROCYCLIC BROAD SPECTRUM ANTIBIOTICS” (priority 2015, published 2018):
≈ marks a conversion by molar mass, not a printed value. Like-named read-outs stand apart in the source and are kept apart here.

Tests used:
[1] = tested on: Escherichia coli ATCC 25922; test: Minimum inhibitory concentration, broth micro-dilution (CLSI), E. coli; assay type: cell-based; conditions: Escherichia coli, ATCC25922, 22 h, read-out: MIC (μg/mL) E. coli
[2] = tested on: Escherichia coli MC4100 harboring the IMP4213 (E. coli IMP); test: microbe, parasite or virus in culture; assay type: cell-based; conditions: Escherichia coli, 22 h
Outline: (§1)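 CLSI broth microdilution in cation-adjusted Mueller Hinton Broth with 0.002% Tween-80; inoculum final OD600 0.0005, 22 hours at 35° C. Ten 2-fold dilutions starting at 4 μg/mL (protocol 2) or 0.5 μg/mL (protocol 3).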

[3] = target: T1, SpsB (Staphylococcus aureus signal peptidase) (Staphylococcus aureus, UniProt P0A070); test: cell-based; assay type: biochemical; conditions: SpsB IC50, whole-cell S. aureus (USA300 background, overexpressing SpsB) as SpsB source; fluorogenic peptide substrate, kinetic read 30 min
T1 construct: This assay uses a suspension of Staphylococcus aureus cells as a source of SpsB instead of recombinant SpsB protein; endogenous in cells; host or cells: S. aureus, USA300 background, overexpressing SpsB (whole-cell suspension from frozen pellets)
Outline: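 Whole S. aureus cells (USA300, overexpressing SpsB) in PBS with MgCl2, CaCl2 and 0.1% Tween-80 served as enzyme source, mixed with 20 μM stock of (Dabcyl)βAla-KPAKAAE(Edans) substrate before use. Fluorescence (ex 340/em 490 nm) read kinetically over 30 min. IC50 from reaction rate versus 11-point inhibitor concentration.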

[4] = tested on: Methicillin Resistant Staphylococcus aureus strain USA 300, NRS384; test: Minimum inhibitory concentration, broth micro-dilution (CLSI), S. aureus; assay type: cell-based; conditions: Staphylococcus aureus, MRSA / NRS 384 / USA300, 22 h, read-out: MIC (μg/mL) S. aureus
Outline: as §1

[5] = E. coli ATCC 25922, 35° C., 22 hours
[6] = read-out: MIC (μg/mL) E. coli IMP, E. coli MC4100 IMP4213, increased outer-membrane permeability, 35° C., 22 hours
[7] = MRSA USA 300 NRS384, 35° C., 22 hours

T1 sequence (P0A070 whole entry): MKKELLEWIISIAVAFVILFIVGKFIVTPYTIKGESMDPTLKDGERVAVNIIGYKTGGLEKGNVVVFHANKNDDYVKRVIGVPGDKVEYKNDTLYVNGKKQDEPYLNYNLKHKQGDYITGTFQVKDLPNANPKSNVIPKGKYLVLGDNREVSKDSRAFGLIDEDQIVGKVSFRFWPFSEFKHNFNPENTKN

Structure (SMILES) | MIC [1, 5] [µg/mL] | MIC [2, 6] [µg/mL] | IC50 [3] [pM] | MIC [4, 7] [µg/mL] | MIC [1] [µg/mL] | MIC ([2]; read-out: MIC (μg/mL) E. coli IMP) [µg/mL] | MIC [4] [µg/mL]
Cc1nc(-c2ccc(C(C)(C)C)cc2)ncc1C(=O)N[C@@H](CCN)C(=O)N(C)[C@@H]1C(=O)N[C@@H](C)C(=O)N[C@H](C(=O)NCC#N)Cc2ccc(OCCN)c(c2)-c2cc1ccc2OCCN [Compound 163] | < 0.063 | 0.002 (≈ 0.00225 µM) | 710 | 0.031 (≈ 0.0348 µM) | – | – | –
CCCCOc1ccc(-c2ncc(C(=O)N[C@@H](CCN)C(=O)N(C)[C@@H]3C(=O)N[C@@H](C)C(=O)N[C@H](C(=O)NCC#N)Cc4ccc(OCCN)c(c4)-c4cc3ccc4OCCN)c(C)n2)cc1 [Compound 164] | 0.13 (≈ 0.143 µM) | 0.0039 (≈ 0.0043 µM) | 620 | 0.047 (≈ 0.0519 µM) | – | – | –
CCCc1ccc(-c2nc(C)c(C(=O)N[C@@H](CCN)C(=O)N(C)[C@@H]3C(=O)N[C@@H](C)C(=O)N[C@H](C(=O)NCC#N)Cc4ccc(OCCN)c(c4)-c4cc3ccc4OCCN)c(C)n2)cc1 [Compound 165] | 0.19 (≈ 0.213 µM) | 0.0039 (≈ 0.00438 µM) | 610 | 0.047 (≈ 0.0528 µM) | – | – | –
Cc1nc(-c2ccc(CC(C)C)cc2)sc1C(=O)N[C@@H](CCN)C(=O)N(C)[C@@H]1C(=O)N[C@@H](C)C(=O)N[C@H](C(=O)NCC#N)Cc2ccc(OCCN)c(c2)-c2cc1ccc2OCCN [Compound 166] | 0.5 (≈ 0.559 µM) | 0.016 (≈ 0.0179 µM) | 780 | 0.063 (≈ 0.0704 µM) | – | – | –
Cc1cc(-c2ccc(CC(C)C)cc2)cnc1C(=O)N[C@@H](CCN)C(=O)N(C)[C@@H]1C(=O)N[C@@H](C)C(=O)N[C@H](C(=O)NCC#N)Cc2ccc(OCCN)c(c2)-c2cc1ccc2OCCN [Compound 168] | 0.75 (≈ 0.844 µM) | 0.031 (≈ 0.0349 µM) | 800 | 0.063 (≈ 0.0709 µM) | – | – | –
Cc1nc(-c2ccc([Si](C)(C)C)cc2)ncc1C(=O)N[C@@H](CCN)C(=O)N(C)[C@@H]1C(=O)N[C@@H](C)C(=O)N[C@H](C(=O)NCC#N)Cc2ccc(OCCN)c(c2)-c2cc1ccc2OCCN [Compound 170] | – | – | 720 | – | 0.13 (≈ 0.143 µM) | 0.0085 (≈ 0.00938 µM) | 0.073 (≈ 0.0806 µM)
Cc1nc(-c2ccc(C(F)(F)F)cc2)ncc1C(=O)N[C@@H](CCN)C(=O)N(C)[C@@H]1C(=O)N[C@@H](C)C(=O)N[C@H](C(=O)NCC#N)Cc2ccc(OCCN)c(c2)-c2cc1ccc2OCCN [Compound 171] | 0.5 (≈ 0.554 µM) | 0.0078 (≈ 0.00865 µM) | 720 | 0.094 (≈ 0.104 µM) | – | – | –
CC(C)Cc1ccc(-c2ccc(C(=O)N[C@@H](CCN)C(=O)N(C)[C@@H]3C(=O)N[C@@H](C)C(=O)N[C@H](C(=O)NCC#N)Cc4ccc(OCCN)c(c4)-c4cc3ccc4OCCN)c(C(F)F)c2)cc1 [Compound 172] | 0.19 (≈ 0.206 µM) | 0.016 (≈ 0.0173 µM) | 1000 | 0.094 (≈ 0.102 µM) | – | – | –
Cc1cc(-c2ncc(CC(C)C)cn2)ccc1C(=O)N[C@@H](CCN)C(=O)N(C)[C@@H]1C(=O)N[C@@H](C)C(=O)N[C@H](C(=O)NCC#N)Cc2ccc(OCCN)c(c2)-c2cc1ccc2OCCN [Compound 174] | 0.83 (≈ 0.933 µM) | 0.026 (≈ 0.0292 µM) | 910 | 0.17 (≈ 0.191 µM) | – | – | –
CCCCc1cnc(-c2ccc(C(=O)N[C@@H](CCN)C(=O)N(C)[C@@H]3C(=O)N[C@@H](C)C(=O)N[C@H](C(=O)NCC#N)Cc4ccc(OCCN)c(c4)-c4cc3ccc4OCCN)c(C)c2)nc1 [Compound 175] | 0.5 (≈ 0.562 µM) | 0.0078 (≈ 0.00876 µM) | 760 | 0.13 (≈ 0.146 µM) | – | – | –
CCc1cnc(-c2ccc(C(=O)N[C@@H](CCN)C(=O)N(C)[C@@H]3C(=O)N[C@@H](C)C(=O)N[C@H](C(=O)NCC#N)Cc4ccc(OCCN)c(c4)-c4cc3ccc4OCCN)c(C)c2)nc1 [Compound 176] | 2 (≈ 2.32 µM) | 0.13 (≈ 0.151 µM) | 2600 | 1 (≈ 1.16 µM) | – | – | –
CC(C)CCc1ccc(-c2ccc(C(=O)N[C@@H](CCN)C(=O)N(C)[C@@H]3C(=O)N[C@@H](C)C(=O)N[C@H](C(=O)NCC#N)Cc4ccc(OCCN)c(c4)-c4cc3ccc4OCCN)cc2)cc1 [Compound 177] | 0.19 (≈ 0.214 µM) | 0.016 (≈ 0.018 µM) | 1100 | 0.094 (≈ 0.106 µM) | – | – | –
Cc1cc(-c2cnc(CC(C)C)cn2)ccc1C(=O)N[C@@H](CCN)C(=O)N(C)[C@@H]1C(=O)N[C@@H](C)C(=O)N[C@H](C(=O)NCC#N)Cc2ccc(OCCN)c(c2)-c2cc1ccc2OCCN [Compound 178] | 1.5 (≈ 1.69 µM) | 0.039 (≈ 0.0438 µM) | 900 | 0.25 (≈ 0.281 µM) | – | – | –
Cc1cc(-c2cnc(CC(C)C)nc2)ccc1C(=O)N[C@@H](CCN)C(=O)N(C)[C@@H]1C(=O)N[C@@H](C)C(=O)N[C@H](C(=O)NCC#N)Cc2ccc(OCCN)c(c2)-c2cc1ccc2OCCN [Compound 179] | 0.19 (≈ 0.213 µM) | 0.0078 (≈ 0.00876 µM) | 1800 | 0.047 (≈ 0.0528 µM) | – | – | –
CC(C)Cc1cnc(-c2ccc(C(=O)N[C@@H](CCN)C(=O)N(C)[C@@H]3C(=O)N[C@@H](C)C(=O)N[C@H](C(=O)NCC#N)Cc4ccc(OCCN)c(c4)-c4cc3ccc4OCCN)c3ccccc23)nc1 [Compound 182] | 12 (≈ 13 µM) | 0.13 (≈ 0.14 µM) | 3200 | 0.5 (≈ 0.54 µM) | – | – | –
CCC(C)(C)c1ccc(-c2ncc(C(=O)N[C@@H](CCN)C(=O)N(C)[C@@H]3C(=O)N[C@@H](C)C(=O)N[C@H](C(=O)NCC#N)Cc4ccc(OCCN)c(c4)-c4cc3ccc4OCCN)c(C)n2)cc1 [Compound 183] | 0.13 (≈ 0.144 µM) | 0.0059 (≈ 0.00653 µM) | 620 | 0.063 (≈ 0.0697 µM) | – | – | –
CCCCCCCCc1ccc(C(=O)N[C@@H](CCN)C(=O)N(C)[C@@H]2C(=O)N[C@@H](C)C(=O)N[C@H](C(=O)NCC#N)Cc3ccc(OCCN)c(c3)-c3cc2ccc3OCCN)c(F)c1 [Compound 184] | 0.25 (≈ 0.287 µM) | 0.012 (≈ 0.0138 µM) | 890 | 0.094 (≈ 0.108 µM) | – | – | –
CCCCCCCCc1ccc(C(=O)N[C@@H](CCN)C(=O)N(C)[C@@H]2C(=O)N[C@@H](C)C(=O)N[C@H](C(=O)NCC#N)Cc3ccc(OCCN)c(c3)-c3cc2ccc3OCCN)c(SC)c1 [Compound 185] | 0.75 (≈ 0.833 µM) | 0.094 (≈ 0.104 µM) | 910 | 0.19 (≈ 0.211 µM) | – | – | –
CCCCCCCCc1cnc(C(=O)N[C@@H](CCN)C(=O)N(C)[C@@H]2C(=O)N[C@@H](C)C(=O)N[C@H](C(=O)NCC#N)Cc3ccc(OCCN)c(c3)-c3cc2ccc3OCCN)c(C)c1 [Compound 187] | 2 (≈ 2.3 µM) | 0.047 (≈ 0.0541 µM) | 740 | 0.063 (≈ 0.0725 µM) | – | – | –
CCCCCCCc1cc(C)c(C(=O)N[C@@H](CCN)C(=O)N(C)[C@@H]2C(=O)N[C@@H](C)C(=O)N[C@H](C(=O)NCC#N)Cc3ccc(OCCN)c(c3)-c3cc2ccc3OCCN)c(F)c1 [Compound 188] | 0.22 (≈ 0.252 µM) | 0.018 (≈ 0.0206 µM) | 670 | 0.047 (≈ 0.0539 µM) | – | – | –
CCCCCCCc1cc(F)c(C(=O)N[C@@H](CCN)C(=O)N(C)[C@@H]2C(=O)N[C@@H](C)C(=O)N[C@H](C(=O)NCC#N)Cc3ccc(OCCN)c(c3)-c3cc2ccc3OCCN)c(F)c1 [Compound 190] | 0.31 (≈ 0.354 µM) | 0.02 (≈ 0.0228 µM) | 700 | 0.063 (≈ 0.0719 µM) | – | – | –
CCCCCCCc1ccc(C(=O)N[C@@H](CCN)C(=O)N(C)[C@@H]2C(=O)N[C@@H](C)C(=O)N[C@H](C(=O)NCC#N)Cc3ccc(OCCN)c(c3)-c3cc2ccc3OCCN)c(C(F)(F)F)c1 [Compound 191] | 0.75 (≈ 0.826 µM) | 0.016 (≈ 0.0176 µM) | 620 | 0.031 (≈ 0.0341 µM) | – | – | –
CCCCCCCCc1ccc(C(=O)N[C@@H](CCN)C(=O)N(C)[C@@H]2C(=O)N[C@@H](C)C(=O)N[C@H](C(=O)NCC#N)Cc3ccc(OCCN)c(c3)-c3cc2ccc3OCCN)c(C(F)(F)F)c1 [Compound 192] | 0.25 (≈ 0.271 µM) | 0.012 (≈ 0.013 µM) | 890 | 0.063 (≈ 0.0683 µM) | – | – | –
